# Literature values, collected in patent US20050079205A1, “Oleamide-containing composition for animal consumption” (priority 2003, published 2005).
# What was measured:
# lactating Jersey cows = conditions: feed supplemented with up to 3.5% oleamide; cited from earlier work
# Holstein cows = conditions: 4.2% oleamide through feed or ruminal cannula; cited from earlier work
structure (smiles),measurement,setting,value
"CCCCCCCC/C=C\CCCCCCCC(N)=O [oleamide, cis-9-octadecenioamide]",dry matter intake,lactating Jersey cows,reduction in dry matter intake
same,dry matter intake,Holstein cows,reduction in dry matter intake
